Key:
[1] = tested on: GTPase KRas (Homo sapiens), P01116 [G12D]; experiment: Binding affinity to KRAS G12D mutant (unknown origin)
DLD-1 [2] = experiment: Antiproliferative activity against human DLD1 cells expressing KRAS mutant at 25 nM; type: functional
[3] = Inhibition of yeast Rce1p using yeast a-factor mating pheromone substrate; design: species or system Saccharomyces cerevisiae
[4] = Inhibition of human Rce1p using quenched fluorogenic substrate by fluorescence assay
MEF [5] = experiment: Antitumor activity against MEF harboring KRAS G12D mutant allografted in p53-null mouse assessed as reduction in tumor weight relative to control; type: functional; design: scale not given: the % may be the effect or the level left
MEF [6] = experiment: Antitumor activity against MEF harboring KRAS G12D mutant allografted in p53-null mouse assessed as reduction in tumor volume relative to control; type: functional; design: scale not given: the % may be the effect or the level left
MEF [7] = experiment: Cytotoxicity against MEF harboring KRAS G12D mutant by ATP-based cell viability assay; type: functional; conditions: Mus musculus
[8] = Cytotoxicity against human NCI-H2887 cells by SRB assay; type: functional, cell-based
[9] = Antitumor activity against human H460 cells xenograft model assessed as increase in host survival at 100 mg/kg, ip relative to solvent control (reference value: 24 days); type: functional, NCI-H460; conditions: route intraperitoneal
A549 = experiment: Cytotoxicity against human A549 cells by SRB assay; type: functional, cell-based
[10] = Cytotoxicity against human H460 cells by SRB assay; type: functional, cell-based; conditions: NCI-H460
[11] = Antitumor activity against human H460 cells xenograft model assessed as tumor growth inhibition at 100 mg/kg, ip relative to solvent control; type: functional; conditions: NCI-H460, ip, route intraperitoneal, read-out: TGI
[12] = Cytotoxicity against human T29Kt1 cells by SRB assay
NCI-H2122 = experiment: Cytotoxicity against human NCI-H2122 cells by SRB assay; type: functional, cell-based
Mus musculus [13] = experiment: Inhibition of MEK1-mediated ERK phosphorylation in human LOX cells xenografted in nude mouse assessed as plasma concentration required for inhibition at 100 mg/kg, po administered as single dose measured after 1 to 12 hrs by Western blot analysis; type: functional, organism-based; design: dose 100 mg/kg, route oral
Mus musculus [14] = experiment: Inhibition of MEK1-mediated ERK phosphorylation in human HT-29 cells xenografted in nude mouse assessed as plasma concentration required for inhibition at 100 mg/kg, po administered as single dose measured after 1 to 12 hrs by Western blot analysis; type: functional, organism-based; design: dose 100 mg/kg, route oral; conditions: HT-29, Plasma
[15] = target: T1, Dual specificity mitogen-activated protein kinase kinase 1 (Homo sapiens, UniProt Q02750); experiment: Inhibition of MEK1 (unknown origin)
T1 sequence (Q02750 whole entry, the tested form may be a part): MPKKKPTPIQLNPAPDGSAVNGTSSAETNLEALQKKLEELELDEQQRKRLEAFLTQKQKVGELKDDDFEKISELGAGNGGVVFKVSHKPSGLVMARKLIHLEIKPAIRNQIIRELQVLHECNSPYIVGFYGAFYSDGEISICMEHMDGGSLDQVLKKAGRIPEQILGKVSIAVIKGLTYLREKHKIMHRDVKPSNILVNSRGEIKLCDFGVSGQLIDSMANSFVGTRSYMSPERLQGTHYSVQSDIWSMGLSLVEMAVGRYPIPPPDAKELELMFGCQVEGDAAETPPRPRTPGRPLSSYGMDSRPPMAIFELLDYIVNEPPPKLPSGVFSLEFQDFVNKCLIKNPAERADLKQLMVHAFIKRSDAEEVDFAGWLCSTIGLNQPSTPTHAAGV

GTPase KRas [16] = target: T2, GTPase KRas (Homo sapiens, UniProt P01116); experiment: Inhibition of full-length human KRas4B (amino acids 1 to 188)-SOS interaction assessed as inhibition of nucleotide exchange activity
T2 sequence (P01116 whole entry, the tested form may be a part): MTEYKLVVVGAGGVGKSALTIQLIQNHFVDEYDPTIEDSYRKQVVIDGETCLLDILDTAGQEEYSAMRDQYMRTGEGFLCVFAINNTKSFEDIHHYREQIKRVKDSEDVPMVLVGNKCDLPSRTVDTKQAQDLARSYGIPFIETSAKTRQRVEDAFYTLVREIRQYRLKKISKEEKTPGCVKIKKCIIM

GTPase KRas [17] = target: T2, GTPase KRas; experiment: Inhibition of full-length human KRas4B (amino acids 1 to 188)-SOS interaction assessed as inhibition of SOS-mediated nucleotide release activity
DLD-1 [18] = experiment: Cytotoxicity against human DLD1 cells harboring mutant KRAS; type: functional, cell-based
DLD-1 [19] = experiment: Selectivity ratio of IC50 for mutant KRAS allele-deficient human DLD1 cells to IC50 for human DLD1 cells harboring mutant KRAS; type: functional
DLD-1 [20] = experiment: Cytotoxicity against mutant KRAS allele-deficient human DLD1 cells; type: functional, cell-based
[21] = Inhibition of MEK/ERK (unknown origin); design: species or system Homo sapiens
[22] = target: T1, Dual specificity mitogen-activated protein kinase kinase 1; experiment: Non-competitive inhibition of MEK1 (unknown origin) kinase activity using fluorescent peptide as substrate by fluorescence assay in presence of ATP
[23] = target: RAF proto-oncogene serine/threonine-protein kinase (Homo sapiens, UniProt P04049); experiment: Inhibition of cRAF (unknown origin) by Caliper assay
RAF proto-oncogene serine/threonine-protein kinase, sequence (P04049 whole entry): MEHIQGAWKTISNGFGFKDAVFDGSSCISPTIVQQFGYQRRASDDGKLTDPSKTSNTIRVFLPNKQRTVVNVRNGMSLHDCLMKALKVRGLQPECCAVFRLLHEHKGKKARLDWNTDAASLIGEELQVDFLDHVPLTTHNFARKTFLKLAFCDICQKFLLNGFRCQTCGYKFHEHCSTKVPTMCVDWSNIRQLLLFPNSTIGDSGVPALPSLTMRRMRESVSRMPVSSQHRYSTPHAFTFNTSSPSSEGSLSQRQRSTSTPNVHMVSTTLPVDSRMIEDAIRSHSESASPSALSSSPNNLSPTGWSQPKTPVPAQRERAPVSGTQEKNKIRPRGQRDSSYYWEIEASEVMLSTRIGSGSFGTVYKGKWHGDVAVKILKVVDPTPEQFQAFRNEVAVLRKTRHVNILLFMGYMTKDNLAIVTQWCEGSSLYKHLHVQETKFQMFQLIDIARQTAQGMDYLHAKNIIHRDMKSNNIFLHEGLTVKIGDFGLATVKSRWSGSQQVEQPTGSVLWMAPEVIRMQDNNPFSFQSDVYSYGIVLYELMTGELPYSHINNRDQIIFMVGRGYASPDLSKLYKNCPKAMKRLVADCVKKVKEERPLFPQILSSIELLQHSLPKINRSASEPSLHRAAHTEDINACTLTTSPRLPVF

[24] = Inhibition of cRaf/MEK/ERK (unknown origin); design: species or system Homo sapiens

GTPase KRas (Homo sapiens), P01116 [G12D], sequence (P01116 whole entry G12D, looked up): as the sequence (P01116 whole entry, the tested form may be a part) above, with G12D counted along it

Compound `CC[C@H](C)[C@H](N)C(=O)Nc1ccc2nc(Cc3c[nH]c4ccccc34)[nH]c2c1` has an Activity [1] of 190 µM.

For `CC[C@@H]1C(=O)N(C)c2cnc(Nc3ccc(C(=O)NC4CCN(C)CC4)cc3OC)nc2N1C1CCCC1` [BI-2536], the inhibition at 0.025 µM (DLD-1 [2]) was over 50%.

`O=C(O)c1ccc(NC(c2ccccc2)c2ccc3cccnc3c2O)cc1` (stereo unspecified) gave an IC50 [3] of 6000 nM and an IC50 [4] of 400 nM.

For `Cc1[nH]c2ccccc2c1Cc1nc2ccccc2[nH]1`, the Activity [1] was 1300 µM.

Compound `C[C@H](CN1CCCC1)C(=O)c1ccc(C(F)(F)F)cc1` [LANPERISONE] has an Activity (MEF [5]) of 37%, an Activity (MEF [6]) of 24% and an IC50 (MEF [7]) of 4000 nM.

Compound `O=Cc1cn(Cc2ccc(Cl)cc2)c2ccccc12` has an IC50 [8] of at most 3000 nM, a Survival [9] of 32 days and an IC50 (A549) of at most 3000 nM. The IC50 [10] was at most 3000 nM, the inhibition in vivo at 100 mg/kg [11] was 75.4% and the IC50 [12] was 4810 nM. For the same compound, the IC50 (NCI-H2122) was at most 3000 nM.

With `C[C@H](CO)COc1ccc([C@H]2NC(=O)N([C@H](C(=O)Nc3ccc(I)cc3F)[C@@H](C)c3ccccc3)C2=O)cc1` the EC50 (Mus musculus [13]) was 1360 nM, the EC50 (Mus musculus [14]) was 3350 nM and the IC50 [15] was 25 nM.

Work on `CCCC(c1cc(C(C)(C)C)c(O)cc1C)c1cc(C(C)(C)C)c(O)cc1C` yielded an IC50 [3] of 6000 nM and an IC50 [4] of 400 nM.

Work on `Cc1[nH]c2cc(Cl)cc(Cl)c2c1CCN` yielded an IC50 (GTPase KRas [16]) of 342000 nM and an IC50 (GTPase KRas [17]) of 155000 nM.

Compound `NC(=O)c1nnn(Cc2cc(Cl)c(C(=O)c3ccc(Cl)cc3)c(Cl)c2)c1N` [CARBOXYAMIDOTRIAZOLE] has an IC50 [3] of 6000 nM and an IC50 [4] of 400 nM.

With `c1ccc(-c2nn(-c3ccccc3)[n+](-c3ccccc3)n2)cc1` the IC50 (DLD-1 [18]) was 2 µg/mL, the “Ratio IC50” value (DLD-1 [19]) was 6 and the IC50 (DLD-1 [20]) was 12 µg/mL.

`CCC(=O)c1csc(NC(=O)[C@H]([C@@H](C)c2ccccc2)N2C(=O)N[C@H](c3ccc(OCCO)cc3)C2=O)n1` gave a Ki [21] of 184 nM, an IC50 [22] of 23 nM and a Ki [23] of over 50000 nM. It also gave a Ki [24] of 53 nM.
